We go through eight compounds from PubChem BioAssay (NCI).

The structures appear in SMILES notation.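 Five compound concentrations were applied to cells in 96-well plates for 48 hours; endpoints were derived by simple linear interpolation of the resulting dose-response curve. Abbreviation: GI50, concentration required for 50% inhibition of growth. TGI denotes the concentration required for complete inhibition of growth.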

Among the test systems are HCT-15 colon; M14 melanoma; MALME-3M melanoma; MDA-MB-231 breast; PC-3 prostate; SK-MEL-5 melanoma; SW-620 colon; T-47D breast; TK-10 renal; UACC-62 melanoma.
Common to all, as to experiment: inhibition of tumour cell growth, NCI panel, 48 h

Consider `ON(CCc1ccccn1)Cc1ccccc1`, for which the TGI in the assay with HCT-15 colon, with M14 melanoma, in the assay on MALME-3M melanoma, with MDA-MB-231 breast, in the assay on PC-3 prostate and in the assay on SK-MEL-5 melanoma was more than 100 µM each time. Also, the TGI in the assay with SW-620 colon, with T-47D breast, in the assay with TK-10 renal and in the assay on UACC-62 melanoma was more than 100 µM each time.

As to `O=C(/C=C\Sc1nccc(C(F)(F)F)n1)c1ccc(Br)cc1`, the GI50 is 20.7 µM with HCT-15 colon; 17.9 µM in the assay with M14 melanoma; 16.9 µM in the assay with MALME-3M melanoma; 19.1 µM in the assay on MDA-MB-231 breast; 15.4 µM in the assay on PC-3 prostate; 37.9 µM in the assay on SK-MEL-5 melanoma. Besides, the GI50 was 30.5 µM in the assay with SW-620 colon, 11.2 µM in the assay on T-47D breast, 26.4 µM in the assay on TK-10 renal and 23.6 µM in the assay on UACC-62 melanoma. For the same compound, the TGI with HCT-15 colon was 70.6 µM; in the assay on M14 melanoma it was 35.5 µM; in the assay with MALME-3M melanoma, 43.9 µM; in the assay with MDA-MB-231 breast, 44.4 µM; in the assay on PC-3 prostate, 29.4 µM; in the assay on SK-MEL-5 melanoma it was more than 100 µM. In addition, the TGI in the assay on SW-620 colon was more than 100 µM; in the assay with T-47D breast, 38.5 µM; in the assay with TK-10 renal it was 59.6 µM; with UACC-62 melanoma it was 60.7 µM.

For the compound `Cc1ccc(NC(=O)c2ccnc(N3CCCC3)c2)cc1-c1ccc(C(=O)NCC2CC2)cc1`, the GI50 with HCT-15 colon is more than 25 µM; with M14 melanoma it was more than 25 µM; with MALME-3M melanoma, more than 25 µM; in the assay with MDA-MB-231 breast, 10 µM; in the assay with PC-3 prostate, more than 25 µM; in the assay on SK-MEL-5 melanoma, more than 25 µM. Moreover, the GI50 in the assay with SW-620 colon is more than 25 µM; in the assay on T-47D breast it was more than 13.5 µM; with TK-10 renal, more than 25 µM; in the assay on UACC-62 melanoma, more than 25 µM. Also, the TGI in the assay on HCT-15 colon, in the assay with M14 melanoma, in the assay on MALME-3M melanoma, in the assay on MDA-MB-231 breast, in the assay with PC-3 prostate and in the assay with SK-MEL-5 melanoma was more than 25 µM throughout. The TGI in the assay on SW-620 colon, in the assay on T-47D breast, in the assay on TK-10 renal and with UACC-62 melanoma was more than 25 µM each time.

Take `O=C1/C(=C/c2ccc(Cl)cc2)CN(C(=O)C(Cl)Cl)C/C1=C\c1ccc(Cl)cc1`: the GI50 in the assay with HCT-15 colon is 0.0577 µM; in the assay with M14 melanoma it was 0.242 µM; in the assay with MALME-3M melanoma, 0.23 µM; in the assay with MDA-MB-231 breast, 0.27 µM; with PC-3 prostate, 0.199 µM; in the assay with SK-MEL-5 melanoma it was 0.231 µM. For the same compound, the GI50 in the assay with SW-620 colon is 0.04 µM; with T-47D breast it was 0.297 µM; in the assay on TK-10 renal it was 0.374 µM; in the assay with UACC-62 melanoma, 0.19 µM. For the same compound, the TGI with HCT-15 colon came out at 0.793 µM; in the assay with M14 melanoma, 0.749 µM; in the assay on MALME-3M melanoma, 0.759 µM; in the assay on MDA-MB-231 breast, 0.961 µM; in the assay on PC-3 prostate, 0.686 µM; in the assay with SK-MEL-5 melanoma, 0.58 µM. Moreover, the TGI amounted to 0.231 µM in the assay with SW-620 colon, 1.62 µM in the assay with T-47D breast, 1.52 µM with TK-10 renal and 0.426 µM in the assay with UACC-62 melanoma.

Turning to `O=C(Cn1ccnc1[N+](=O)[O-])NCC(F)(F)C(F)(F)F`, the GI50 in the assay with HCT-15 colon, with M14 melanoma, in the assay on MALME-3M melanoma, in the assay with MDA-MB-231 breast, in the assay with PC-3 prostate and in the assay on SK-MEL-5 melanoma was more than 100 µM in each case. In addition, the GI50 in the assay with SW-620 colon, in the assay on T-47D breast, in the assay on TK-10 renal and in the assay on UACC-62 melanoma was more than 100 µM each time. Moreover, the TGI in the assay with HCT-15 colon, in the assay on M14 melanoma, in the assay with MALME-3M melanoma, with MDA-MB-231 breast, in the assay with PC-3 prostate and in the assay with SK-MEL-5 melanoma was more than 100 µM throughout. In addition, the TGI with SW-620 colon, with T-47D breast, in the assay with TK-10 renal and in the assay with UACC-62 melanoma was more than 100 µM in each case.

`Clc1ccc(CO/N=C(\Cn2ccnc2)c2ccc(Cl)cc2Cl)c(Cl)c1`: the GI50 in the assay on HCT-15 colon is 1.57 µM; in the assay with M14 melanoma it was 1.85 µM; with MALME-3M melanoma, 1.66 µM; in the assay on MDA-MB-231 breast, 1.32 µM; in the assay on PC-3 prostate, 1.27 µM; with SK-MEL-5 melanoma it was 1.63 µM. For the same compound, the GI50 is 1.55 µM with SW-620 colon, 1.77 µM in the assay on T-47D breast, 1.81 µM in the assay with TK-10 renal and 1.24 µM with UACC-62 melanoma. Also, the TGI with HCT-15 colon was 3.21 µM; in the assay with M14 melanoma it was 3.71 µM; in the assay with MALME-3M melanoma it was 3.36 µM; in the assay with MDA-MB-231 breast it was 2.75 µM; with PC-3 prostate it was 2.72 µM; with SK-MEL-5 melanoma, 3.03 µM. For the same compound, the TGI worked out at 3.2 µM with SW-620 colon, 3.36 µM in the assay with T-47D breast, 3.25 µM in the assay with TK-10 renal and 2.67 µM with UACC-62 melanoma.

Turning to `CNC1C(O)CC(OC2C/C=C(\C)C/C(C)=C/C=C/CCC(C)CNC(=O)/C=C/C=C/C2C)OC1C` (stereo not given), the TGI in the assay with HCT-15 colon is 0.531 µM; with M14 melanoma, 0.773 µM; in the assay on MALME-3M melanoma, 3 µM; with MDA-MB-231 breast, 2.91 µM; in the assay on PC-3 prostate, 2.07 µM; in the assay on SK-MEL-5 melanoma it was 1.22 µM. Further, the TGI in the assay with SW-620 colon is 0.261 µM; in the assay on T-47D breast, 3.18 µM; in the assay on TK-10 renal it was 3.17 µM; in the assay with UACC-62 melanoma, 0.855 µM.

On to `COc1ccc2c(c1)Cc1c-2c(NN)nc2ccccc12`, for which the GI50 is 25.5 µM with HCT-15 colon; 40.1 µM in the assay on M14 melanoma; more than 100 µM in the assay with MALME-3M melanoma; 36 µM with MDA-MB-231 breast; 19.8 µM in the assay on PC-3 prostate; 22 µM in the assay with SK-MEL-5 melanoma. For the same compound, the GI50 in the assay on SW-620 colon was 21.1 µM; with T-47D breast, 26.5 µM; with TK-10 renal, 57.3 µM; with UACC-62 melanoma, 25 µM. The TGI in the assay on HCT-15 colon is more than 100 µM; in the assay on M14 melanoma, more than 100 µM; in the assay with MALME-3M melanoma, more than 100 µM; in the assay on MDA-MB-231 breast, more than 100 µM; with PC-3 prostate, more than 100 µM; with SK-MEL-5 melanoma, 58.3 µM. Moreover, the TGI in the assay with SW-620 colon, in the assay on T-47D breast, in the assay with TK-10 renal and with UACC-62 melanoma was more than 100 µM throughout.
